What all share (type): biochemical
Assay [1] has as its system α-isomaltosyl-transferring enzyme from Bacillus globisporus N75. The method, then:
(§1) The activity of the enzyme was assayed by dissolving panose in 100 mM acetate buffer (pH 6.0) to give a concentration of two percent (w/v) for a substrate solution, adding a 0.5 ml of an enzyme solution to a 0.5 ml of the substrate solution, enzymatically reacting the mixture solution at 35° C. for 30 min, suspending the reaction mixture by boiling for 10 min, and quantifying glucose by the glucose oxidation method. One unit activity of the α-isomaltosyl-transferring enzyme is defined as the enzyme amount that forms one micromole of glucose per minute under the above enzymatic reaction conditions. Throughout the specification, the enzymatic activity of the α-isomaltosyl-transferring enzyme means the unit(s) assayed as above.
(§2) The influence of metal ions on the activity of α-isomaltosyl-transferring enzyme was examined in the presence of 1 mM of a metal ion according to the assay for the enzyme activity.

Assay [2] deals with α-isomaltosyl-transferring enzyme from Bacillus globisporus C9. The assay is described as follows: Influence of metal ions on enzyme activity. As to conditions: enzyme of Strain C9; for Relative activity: 1 mM metal ion; for Effect on enzyme activity: 1 mM. The method, then:
as §1
The influence of metal ions on the activity of α-isomaltosyl-transferring enzyme was examined in the presence of 1 mM of each metal-ion according to the assay for the enzyme activity.

In assay [3] the test system is α-isomaltosyl-transferring enzyme from Arthrobacter ramosus S1. The assay is described as follows: Influence of metal ions on enzyme activity. As to conditions: enzyme of Strain S1; for Relative activity: 1 mM metal ion; for Effect on enzyme activity: 1 mM. The method, then: as §1, §2
Assay [4] has as its system α-isomaltosyl-transferring enzyme from Bacillus globisporus C11. Kind of assay: Influence of metal ions on enzyme activity. As to conditions: enzyme of Strain C11; for Relative activity: 1 mM metal ion; for Effect on enzyme activity: 1 mM. The method, then:
as §1, §2

Assay [5] has as its system α-isomaltosyl-transferring enzyme from Bacillus globisporus C9. Kind of assay: Action on saccharides (substrates, TLC). Also noted: key: −: there was found no substrate change before and after the enzymatic reaction; +: there were found both the reduction of substrate and the formation of cyclotetrasaccharide after the enzymatic reaction. The following applies: 2 units/g substrate, 2% (w/v) substrate, 30° C., pH 6.0, 24 hours. The procedure, abridged:
(§3)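 Each candidate saccharide, from malto- and isomalto-oligosaccharides to cyclodextrins, starch, pullulan and dextran, was prepared at 2% (w/v). Two units/g substrate of enzyme were added, then the mixture was held at pH 6.0, 30° C., 24 hours. Samples were then analysed by silica gel TLC.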

For assay [6], the system named is α-isomaltosyl-transferring enzyme from Bacillus globisporus N75. Kind of assay: Action on saccharides (substrates, TLC). As to conditions: 2 units/g substrate, 2% (w/v) substrate, 30° C., pH 6.0, 24 hours. Also noted: key: −: there was found no substrate change before and after the enzymatic reaction; +: there were found both the reduction of substrate and the formation of cyclotetrasaccharide after the enzymatic reaction. Summed up:
as §3

In assay [7] the test system is α-isomaltosyl-transferring enzyme from Arthrobacter globiformis A19. Kind of assay: Action on saccharides (substrates, TLC). Set-up: key: −: there was found no substrate change before and after the enzymatic reaction; +: there were found both the reduction of substrate and the formation of cyclotetrasaccharide after the enzymatic reaction. As to conditions: partially purified enzyme, 2 units/g substrate, 2% (w/v) substrate, 30° C., pH 6.0, 24 hours. The procedure, abridged:
as §3

The test system of assay [8] is α-isomaltosyl-transferring enzyme from Arthrobacter ramosus S1. The assay is described as follows: Action on saccharides (substrates, TLC). As to conditions: 2 units/g substrate, 2% (w/v) substrate, 30° C., pH 6.0, 24 hours. Set-up: key: −: there was found no substrate change before and after the enzymatic reaction; +: there were found both the reduction of substrate and the formation of cyclotetrasaccharide after the enzymatic reaction. The procedure, abridged:
as §3

The test system of assay [9] is α-isomaltosyl-transferring enzyme from Bacillus globisporus C11. Kind of assay: Action on saccharides (substrates, TLC). Also noted: key: −: there was found no substrate change before and after the enzymatic reaction; +: there were found both the reduction of substrate and the formation of cyclotetrasaccharide after the enzymatic reaction. As to conditions: 2 units/g substrate, 2% (w/v) substrate, 30° C., pH 6.0, 24 hours. Summed up:
as §3

For assay [10], the system named is α-isomaltosyl-transferring enzyme from Bacillus globisporus C9. The assay is described as follows: Specificity to transferring acceptor. The following applies: panose as saccharide donor, 10 units/g substrate, 3.2% (w/v), 30° C., pH 6.0, 24 hours. The procedure, abridged: (§4)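 Candidate acceptor saccharides mixed with panose donor at equal concentration, 10 units/g substrate enzyme, total saccharide 3.2% (w/v), reacted 24 h at 30 °C, pH 6.0. Transfer product formation scored positive/negative by GLC (mono-/disaccharides) or HPLC (tri- and higher).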

Assay [11] relates to α-isomaltosyl-transferring enzyme from Bacillus globisporus N75. The assay is described as follows: Specificity to transferring acceptor. As to conditions: panose as saccharide donor, 10 units/g substrate, 3.2% (w/v), 30° C., pH 6.0, 24 hours. Summed up:
as §4

The test system of assay [12] is α-isomaltosyl-transferring enzyme from Arthrobacter globiformis A19. Kind of assay: Specificity to transferring acceptor. As to conditions: partially purified enzyme, panose as saccharide donor, 10 units/g substrate, 3.2% (w/v), 30° C., pH 6.0, 24 hours. Summed up: as §4
Assay [13] deals with α-isomaltosyl-transferring enzyme from Arthrobacter ramosus S1. The assay is described as follows: Specificity to transferring acceptor. The following applies: panose as saccharide donor, 10 units/g substrate, 3.2% (w/v), 30° C., pH 6.0, 24 hours. The procedure, abridged:
as §4

Assay [14] deals with α-isomaltosyl-transferring enzyme from Bacillus globisporus C11. The assay is described as follows: Specificity to transferring acceptor. As to conditions: panose as saccharide donor, 10 units/g substrate, 3.2% (w/v), 30° C., pH 6.0, 24 hours. Summed up:
as §4

[15] abbreviates: 1 mM metal ion, enzyme of Strain N75.

Where two headings read alike, the source gives them in different places.

Regarding `[Ca+2]` [Ca^2+], the Relative activity in assay [1] (setting [15]) is 100%; in [2] it was 101%; in assay [3] it was 103%; in assay [4], 91%. Further, the “Effect on enzyme activity” value is on record as “neither activated” in assay [1] (1 mM, enzyme of Strain N75); “neither activated” in assay [2]; “neither activated” in [3]; “neither activated” in [4].
In the case of `[Sr+2]` [Sr^2+], the Relative activity in assay [1] (setting [15]) is 91%; in [2], 101%; in assay [3], 101%; in assay [4], 93%.
For `[Zn+2]` [Zn^2+], the Relative activity stood at 75% in assay [1] (setting [15]), 88% in assay [2], 78% in assay [3] and 83% in assay [4].
Regarding `[Hg+2]` [Hg^2+], the Relative activity in assay [1] (setting [15]) is recorded as 0.5%; in [2], 1%; in assay [3] it was 0.1%; in assay [4] it was 2%. Besides, the “Effect on enzyme activity” value in assay [1] (1 mM, enzyme of Strain N75) is “greatly inhibited”; in assay [2], “greatly inhibited”; in assay [3] it was “greatly inhibited”; in assay [4], “greatly inhibited”.
Turning to `[Mn+2]` [Mn^2+], the Relative activity in assay [1] (setting [15]) worked out at 101%; in assay [2], 106%; in [4] it was 93%.
As to `[Co+2]` [Co^2+], the Relative activity in assay [1] (setting [15]) was 92%; in assay [2], 103%; in assay [3], 91%; in assay [4] it was 89%.
Take `[Mg+2]` [Mg^2+]: the Relative activity in assay [1] (setting [15]) is listed as 95%; in [3], 99%; in assay [4], 91%.
With `[Pb+2]` [Pb^2+], the Relative activity in assay [1] (setting [15]) is 69%; in assay [2] it was 89%; in assay [3], 85%; in assay [4], 74%.
Regarding `[Ni+2]` [Ni^2+], the Relative activity in assay [1] (setting [15]) stood at 91%; in [2], 102%; in assay [3] it was 87%; in [4], 89%.
Regarding `[Ba+2]` [Ba^2+], the Relative activity worked out at 102% in assay [1] (setting [15]), 102% in assay [2], 97% in [3] and 90% in assay [4].
With `[Fe+2]` [Fe^2+], the Relative activity in assay [2] is recorded as 96%; in [2] (listed as Fe^3+), 105%; in assay [3], 105%; in [3] (listed as Fe^3+), 75%.
Regarding `[Cu+2]` [Cu^2+], the Relative activity in [1] (setting [15]) came to 15%; in assay [2] it was 57%; in assay [3] it was 2%; in assay [4], 56%. The “Effect on enzyme activity” value was “also inhibited” in assay [1] (1 mM, enzyme of Strain N75); “also inhibited” in assay [2]; “also inhibited” in assay [3]; “also inhibited” in [4].
Consider `[Al+3]` [Al^3+], for which the Relative activity in assay [1] (setting [15]) is 94%; in assay [2], 103%; in assay [3] it was 93%; in [4], 89%.
In the case of maltotriose, in assay [5], the “Enzymatic action for forming cyclotetrasaccharide, Enzyme of Strain C9” value is recorded as “−”. The “Enzymatic action for forming cyclotetrasaccharide, Enzyme of Strain N75” value in [6] is reported as “−”. In addition, in assay [7], the “Enzymatic action for forming cyclotetrasaccharide, Enzyme of Strain A19” value is “−”. The “Enzymatic action for forming cyclotetrasaccharide, Enzyme of Strain S1” value in assay [8] was “−”. The “Enzymatic action for forming cyclotetrasaccharide, Enzyme of Strain C11” value in [9] was “−”. For the same compound, in assay [10], the “Product of transferring reaction, Enzyme of Strain C9” value is “+ (a saccharide-transferred product was formed in an amount of over one percent but below 10% to the total sugars)”. Moreover, the “Product of transferring reaction, Enzyme of Strain N75” value in assay [11] is “+ (a saccharide-transferred product was formed in an amount of over one percent but below 10% to the total sugars)”. Also, the “Product of transferring reaction, Enzyme of Stain A19” value in assay [12] is “+ (a saccharide-transferred product was formed in an amount of over one percent but below 10% to the total sugars)”. The “Product of transferring reaction, Enzyme of Strain S1” value in assay [13] is on record as “++ (a saccharide-transferred product was formed in an amount of over 10% to the total sugars)”. Moreover, the “Product of transferring reaction, Enzyme of Strain C11” value in [14] is reported as “+ (a saccharide-transferred product was formed in an amount of over one percent but below 10% to the total sugars)”.
`O=C(O)CN(CCN(CC(=O)O)CC(=O)O)CC(=O)O` [EDTA]: the “Effect on enzyme activity” value in assay [1], in assay [2], in [3] and in assay [4] was “nor inhibited” throughout. Further, the Relative activity in assay [1] was determined as 92%; in [2], 104%; in assay [3], 91%; in assay [4] it was 98%.

The values are drawn from patent US7192746B2, “α-Isomaltosyltransferase, process for producing the same and use thereof” (Kabushiki Kaisha Hayashibara Seibutsu Kagaku Kenkyujo, priority 2000, dated 2007).
